Laboratory results: US20260306640A1, “TECHNOLOGIES TARGETING CELL STATES” (Auron Therapeutics, Inc., priority 2023, published 2026)
Read-outs that look alike come from different tables or passages of the source.

Tests used:
epithelial GSEA = assay: Epithelial GSEA in NCI-H1048 tumors of treated mice; format: in vivo; settings: tumors treated as compared to vehicle; FIG. 1 (G)
Protocol: (§1) FIG. 1. Provided compounds can provide various activities including inhibiting tumor growth in vivo. (A): Provided compounds can inhibit tumor growth in vivo. Nude Balb/c mice were inoculated with NCI-H1048 cells in Matrigel. Tumors were allowed to grow up to about 200 mm^3 and mice were then randomized into two groups. Mice were dosed intraperitoneally (i.p.) once per week with vehicle or 30 mg/kg compound 22. Tumor size was measured every three to four days and mice were sacrificed once vehicle tumors reached 2000 mm^3. Error bar is SEM. Dosing started at day 17 post tumor inoculation. (B): Provided technologies can reduce KAT2A and KAT2B levels and histone acetylation levels. […] Vehicle is DMSO. […] Cell count data relative to DMSO control after 8 days of treatment with compound 22 are presented as examples to confirm inhibition. GI50=6 nM. (D): Provided technologies can inhibit tumor growth in vivo. Nude balb/c mice inoculated with H1048 tumors were dosed intraperitoneally once per week (qw i.p.) with vehicle (HbCD) or compound 22. Average tumor volumes+/−SEM from 6 mice are represented. […] See also (A). […] Certain body weights relative to starting weight are presented as examples to confirm tolerability and safety. (F): Provided technologies can reduce KAT2A and KAT2B levels and histone acetylation levels in tumor in vivo. […]

KAT2A = KAT2A (Homo sapiens, UniProt Q92830); assay: Western blot of KAT2A in NCI-H1048 tumors, 168 hours post last dose; format: in vivo; design: degrader, Western blot; settings: FIG. 1 (F)
KAT2A, sequence (Q92830 whole entry): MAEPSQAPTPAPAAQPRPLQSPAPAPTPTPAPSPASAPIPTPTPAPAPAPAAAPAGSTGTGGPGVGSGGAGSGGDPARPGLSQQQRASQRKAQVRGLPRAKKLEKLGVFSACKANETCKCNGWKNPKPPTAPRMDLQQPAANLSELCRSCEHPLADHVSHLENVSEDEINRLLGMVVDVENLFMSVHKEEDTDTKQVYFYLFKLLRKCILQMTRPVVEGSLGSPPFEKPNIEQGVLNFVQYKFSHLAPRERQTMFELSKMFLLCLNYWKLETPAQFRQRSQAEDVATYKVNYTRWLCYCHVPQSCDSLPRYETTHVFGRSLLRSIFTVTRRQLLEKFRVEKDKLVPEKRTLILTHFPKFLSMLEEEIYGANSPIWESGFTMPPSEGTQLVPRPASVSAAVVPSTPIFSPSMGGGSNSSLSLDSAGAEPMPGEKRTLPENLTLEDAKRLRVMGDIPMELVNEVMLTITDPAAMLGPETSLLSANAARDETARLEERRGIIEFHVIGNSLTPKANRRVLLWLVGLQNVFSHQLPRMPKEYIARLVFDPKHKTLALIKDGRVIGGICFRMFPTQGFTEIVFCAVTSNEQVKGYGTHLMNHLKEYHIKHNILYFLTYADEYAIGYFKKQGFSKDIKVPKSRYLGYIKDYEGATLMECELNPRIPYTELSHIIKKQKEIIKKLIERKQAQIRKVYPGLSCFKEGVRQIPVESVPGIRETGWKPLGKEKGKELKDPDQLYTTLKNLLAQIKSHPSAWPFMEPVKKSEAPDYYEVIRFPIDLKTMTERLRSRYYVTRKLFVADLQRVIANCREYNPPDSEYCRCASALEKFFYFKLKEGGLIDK
Protocol: as §1

NCI-H1048 tumors = assay: Tumor growth inhibition in nude Balb/c mice bearing NCI-H1048 tumors; format: in vivo; settings: 30 mg/kg, once per week i.p.; average tumor volumes from 6 mice; FIG. 1 (D)
Protocol: as §1

KAT2B [1] = target: T1, KAT2B (Homo sapiens, UniProt Q92831); assay: KAT2B degradation, Western Blot (Jess), NCI-H1048 cells; format: cell-based; design: degrader, Western blot (Jess)
T1 sequence (Q92831 whole entry): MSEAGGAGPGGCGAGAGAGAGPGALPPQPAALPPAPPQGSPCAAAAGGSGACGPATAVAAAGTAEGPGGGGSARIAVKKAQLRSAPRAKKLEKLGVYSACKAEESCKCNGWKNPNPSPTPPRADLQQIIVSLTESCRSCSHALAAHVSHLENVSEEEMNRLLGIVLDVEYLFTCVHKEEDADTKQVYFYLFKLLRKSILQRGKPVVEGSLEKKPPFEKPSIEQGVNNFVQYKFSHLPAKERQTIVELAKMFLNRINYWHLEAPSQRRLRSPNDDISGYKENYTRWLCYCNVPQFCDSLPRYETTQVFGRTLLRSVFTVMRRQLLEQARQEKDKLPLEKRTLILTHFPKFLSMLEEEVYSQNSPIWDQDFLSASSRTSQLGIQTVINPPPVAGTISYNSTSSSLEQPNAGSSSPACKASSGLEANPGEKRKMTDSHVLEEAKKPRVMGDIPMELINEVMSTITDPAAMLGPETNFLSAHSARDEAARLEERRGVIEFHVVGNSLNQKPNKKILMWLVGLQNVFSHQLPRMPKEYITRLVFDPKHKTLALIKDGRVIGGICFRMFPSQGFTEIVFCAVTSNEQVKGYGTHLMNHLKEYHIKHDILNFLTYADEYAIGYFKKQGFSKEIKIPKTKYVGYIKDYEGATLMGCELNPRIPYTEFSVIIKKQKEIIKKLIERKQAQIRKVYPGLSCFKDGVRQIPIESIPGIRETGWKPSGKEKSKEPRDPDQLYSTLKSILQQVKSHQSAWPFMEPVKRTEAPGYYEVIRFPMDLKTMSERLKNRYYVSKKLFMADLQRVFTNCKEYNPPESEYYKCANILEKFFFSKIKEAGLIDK
Method in brief: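 DC50 came from protein loss relative to DMSO, measured by Jess capillary immunoblot of RIPA lysates with chemiluminescence read-out. Before lysis, NCI-H1048 cells in 5% FBS HITES medium were exposed to compound for 24 h at 37° C.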

KAT2B [2] = target: T1, KAT2B; assay: Western blot of KAT2B level in acute myeloid leukemia MOLM-13 cells, 48 h; format: cell-based; design: degrader, Western blot; settings: FIG. 2 (A)
Protocol: FIG. 2. Provided compounds can provide various activities. (A): Provided technologies can reduce KAT2A and KAT2B levels and histone acetylation levels. […] Cell count data after 8 days of treatment with compound 22 relative to DMSO control are presented as examples to confirm inhibition. […] (C): Provided technologies can modulate cell states and induce differentiation. […] EC50=0.3 nM.

LASCPC-01 cells = assay: Cell viability (Cell Titer Glo, 7 days), LASCPC-01 cells; format: cell-based; settings: 168 h, Cell Titer Glo relative to DMSO control after 7 days, FIG. 3 (B)
Protocol: (§2) FIG. 3. Provided compounds can provide various activities. (A): Provided technologies can reduce KAT2A and KAT2B levels and histone acetylation levels. […] Cell viability (Cell Titer Glo) data relative to DMSO control after 7 days of treatment with compound 22 are presented as examples to confirm inhibition. GI50=5 nM. (C): Provided technologies can modulate cell states and induce differentiation. […] (D): Provided technologies can reduce KAT2A and KAT2B levels and histone acetylation levels including in neuroendocrine prostate cancer primary patient organoid. […] Concentrations are nM. […] Cell viability data relative to DMSO control after 21 days of treatment with compound 22 are presented as examples to confirm inhibition. GI50=3 nM. (F): Provided technologies can modulate cell states and induce differentiation.

microglial GSEA = assay: Microglial GSEA in NEPC primary patient organoid; format: cell-based; settings: both epithelial and neural components; FIG. 3 (F)
Protocol: as §2

[3] = Tolerability / body weight relative to starting weight in nude Balb/c mice bearing H1048 tumors; format: in vivo; settings: once per week i.p.; 30 mg/kg; FIG. 1 (D), (E)
Protocol: as §1

[4] = test system: small cell lung cancer cells, e.g., NCI-H1048 cells; assay: Differentiation GSEA signatures from RNA-Seq, NCI-H1048; format: cell-based, human; settings: NCI-H1048, FIG. 1
Protocol: In some embodiments, GSEA signatures are utilized for assessing cell states, differentiation, etc. In some assessments, differentiation GSEA signatures, e.g., from RNA-Seq was performed. A useful protocol is described herein as an example. In some assessments, LASCPC-01 cells, NEPC organoid cell pellets, or NCI-H1048 tumor pieces were flash frozen upon harvest and stored at −80° C. RNA was isolated, mRNA library was prepared (poly A enrichment) and sequencing was run. Reads were aligned to reference v38 using Kallis to generate gene count matrices for each sample. The gene count matrix was the input to the ML pipelines that generate normal atlas scores and cell state classification. It was also input to differential expression analysis using Edger in R. The output of differential expression was input to gene set enrichment analysis (GSEA) to define gene sets that were most shifted by treatment. For defining specific epithelial differentiation endpoints to generate the solid tumor differentiation box plots, cell state gene sets resulting from GSEA are consolidated by cell state to define a consensus set of genes that define epithelial differentiation. Other suitable technologies may also utilized in accordance with the present disclosure.

SMILES: CN1C[C@H](Nc2cnn(C)c(=O)c2Br)C[C@H](c2ccc(C(=O)N3CCC(CN4CCN(c5ccc6c(c5)CN(C5CCC(=O)NC5=O)C6=O)CC4)CC3)cc2)C1 (stereo partly drawn) [Compound 22, 3-(5-(4-((1-(4-((3R,5R)-5-((5-bromo-1-methyl-6-oxo-1,6-dihydropyridazin-4-yl)amino)-1-methylpiperidin-3-yl)benzoyl)piperidin-4-yl)methyl)piperazin-1-yl)-1-oxoisoindolin-2-yl)piperidine-2,6-dione]
- epithelial GSEA (epithelial GSEA): significant upregulation
- reduction of KAT2A in tumor (KAT2A): significant reduction
- tumor growth inhibition (NCI-H1048 tumors): 70%
- EC90 (KAT2B [1]; 24 h, NCI-H1048, KAT2B, read-out: DC90 (the source's name)): 1.44 nM
- DC50 (KAT2B [1]; NCI-H1048, KAT2B, read-out: DC50): 0.04 nM
- KAT2B levels (KAT2B [1]; NCI-H1048 cells, FIG. 1): potently reduce KAT2A and KAT2B levels
- DC50 (KAT2B [1]; NCI-H1048 cells, KAT2B, 24 h, Western Blot, vs DMSO, read-out: KAT2B NCI-H1048 DC50): < 1 nM
- reduction of KAT2B level (KAT2B [2]): confirm such reduction
- GI50 (LASCPC-01 cells): 5 nM
- microglial GSEA (microglial GSEA): significant upregulation
- tolerability (body weights relative to starting weight) [3]: well tolerated
- induction of differentiation [4]: induce differentiation (e.g., epithelial, neural, and/or microglial)
